Measured values as given in patent publication US9220703B2, “Composition and method for the protection of articular cartilage” (priority 2014, dated 2015).

Tested on: Mycobacterium tuberculosis (adjuvant) induced arthritis
Assay: Adjuvant induced arthritis in rats, histopathology of paw/ankle joint tissue
Format: in vivo, Albino Wistar rats
Settings: for Histopathology of rat paw tissue: articular cartilage / Histopathology of rat paw tissue: granulomas / Histopathology of rat paw tissue: synovial tissue: adjuvant arthritic rats, H&E stain
Description: Pathological damage: Adjuvant induced arthritis in animal models
Animals used: Albino Wistar rats of either sex
Weight of the animals: 140-180 grams
Number of animals/group: 5
Methodology: Chronic arthritis was induced in rats by the injection of 0.05 mL of (0.5% w/v) suspension of killed Mycobacterium tuberculosis, homogenized in liquid paraffin in the left hind foot.
Right ankle joints of the animals in the control and treated groups were separated from the hind paw, weighed and immersed in 10% buffered formalin for 24 hours, followed by decalcification in 10% EDTA. The joints were then dehydrated, processed and paraffin (56 C-58 C) blocks were prepared, stained (hematoxylin and eosin) and examined under the compound microscope (Patel P, Patel D, Patel N. Experimental investigation of anti-rheumatoid activity of Pleurotus sajorcaju in adjuvant-induced arthritic rats. Chinese Journal of Natural Medicines, 2012; 10 (4): 0269-0274.

COc1cc(/C=C/C(=O)COC(=O)/C=C/c2ccc(O)c(OC)c2)ccc1O [Calebin A]
Histopathology of rat paw tissue: articular cartilage (Calebin A 10 mg/kg per oral): intact articular cartilage with synovial tissue in the joint
Histopathology of rat paw tissue: granulomas (Calebin A 10 mg/kg per oral): No granulomas were seen
Histopathology of rat paw tissue: synovial tissue (Calebin A 10 mg/kg per oral): congested vascular spaces (Long-Arrows), scattered lymphocytes (Short-Arrow) and intact synovial lining
Histopathology of rat paw tissue: articular cartilage (Calebin A 20 mg/kg per oral): intact articular cartilage with synovial tissue in the joint
Histopathology of rat paw tissue: granulomas (Calebin A 20 mg/kg per oral): No granulomas were seen
Histopathology of rat paw tissue: synovial tissue (Calebin A 20 mg/kg per oral): mild synovial epithelial hyperplasia (Short-Arrow), scattered lymphocytes (Long-Arrow) and intact vascular spaces
Protection of articular cartilage (histopathological studies, overall) (arthritic rats, across doses): dose dependant protection of articular cartilage
